“Also recorded” adds a separate entry of the source.
Tests used:
Bcl-2 = experiment: Immunoblot of Bcl-2 expression; assay type: cell-based, human; conditions: 1 μM, 72 hours, CK19/GFP-negative cells
Method: Whole cell extracts were prepared in sample buffer and analyzed by immunoblotting. […] Protein expression was quantified by comparing band expression using Quantity One software (Bio-Rad).

[1] = test system: Notch and Hedgehog pathway target genes; experiment: Quantitative RT-PCR of Notch and Hedgehog pathway target genes in cells; assay type: cell-based, human; conditions: 1 μM, 72 hours, DU145-pCK19-GFP and 22Rv1-pCK19-GFP cells
Method: Total RNA was isolated using the RNeasy Mini kit according to the manufacturer's instructions (Qiagen). Complementary DNA was synthesized from equivalent concentrations of total RNA using the SuperScript III First-Strand Synthesis SuperMix Kit (Invitrogen) according to the manufacturer's instructions. Coding sequences for genes of interest and β-Actin as an internal control were amplified from 500 ng of complementary DNA using the QuantiTect SYBR Green PCR Kit (Qiagen).
Amplification was carried out using a Stratagene mx3005p (Agilent Technologies). Cycle threshold (Ct) values were determined and normalized to the housekeeping gene (β-actin) for each experiment. Fold changes for experimental groups relative to respective controls were calculated using MX Pro software (Agilent Technologies). Quantitative RT-PCR was performed in DU145-pCK19-GFP and 22Rv1-pCK19-GFP cells as well as in cells obtained from mice bearing DU145 and 22Rv1 tumor xenografts treated for 21 days with Docetaxel, and Hedgehog and Notch inhibitors, alone or in combination. Quantitative RT-PCR was performed in tumor xenografts removed 4 hours after the last drug dose was administered.

p-AKT (Ser473) = experiment: Immunoblot of AKT phosphorylation; assay type: cell-based, human; conditions: 1 μM, 72 hours, CK19/GFP-negative cells
Method: (§1) Whole cell extracts were prepared in sample buffer and analyzed by immunoblotting. Primary antibodies against poly (ADP-ribose) polymerase (PARP) (BD Pharmingen), cleaved caspase-3 (Cell Signaling), cytokeratin 19 (CK19) (Abcam), cytokeratin 18 (CK18) (Abcam), androgen receptor (AR) (Sigma-Aldrich), prostate specific membrane antigen (PSMA) (Abcam), prostate specific antigen (PSA) (Epitomics), cytokeratin 5 (CK5) (Covance), cytokeratin 14 (CK14) (Biogenex), p63 (Santa Cruz), CD44 (Neomarkers), activated Notch2 (Abcam), Hes1 (Abcam), Patched (Abcam), Gli1 (Santa Cruz), Gli2 (Abcam), pan-HLA class I (Abcam), and AKT (Cell Signaling), phospho-AKT Ser 473 (Cell Signaling), Bcl-2 (Cell Signaling), ABCB1/P-Glycoprotein (Calbiochem), Green fluorescent protein (Santa Cruz), and β-Actin (Sigma-Aldrich) were used in immunoblot assays using standard procedures. Protein expression was quantified by comparing band expression using Quantity One software (Bio-Rad).

[2] = test system: DU145-pCK19-GFP and 22Rv1-pCK19-GFP sorted cells; experiment: Colony formation assay of GFP-sorted cells; assay type: cell-based, human; conditions: 72 hours; for colony formation of CK19/GFP-negative cells with PI3K/AKT and Bcl-2 inhibition: LY294002 50 μM, ABT-737 10 μM; for colony formation of CK19/GFP-negative cells / colony formation of CK19/GFP-positive cells: Mitoxantrone 125/500 nM, Cisplatin 5/2.5 μM, Vinorelbine 500/750 nM (DU145/22Rv1)
Method: (§2) Cells were exposed to vehicle solution (Control), LY294002 (50 μM), and ABT-737 (10 μM) for 72 hours, alone or in combination.

CK19/GFP-negative cells = experiment: Apoptotic response by Caspase-3 and PARP cleavage immunoblot; assay type: cell-based, human; conditions: LY294002 50 μM, ABT-737 10 μM, 72 hours
Method: as §1, §2

[3] = test system: DU145-pCK19-GFP and 22Rv1-pCK19-GFP cells; experiment: Live cell imaging (time-lapse) in presence of Docetaxel; assay type: cell-based, human; conditions: in the presence of Docetaxel
Method: Time-lapse videomicroscopy was used to assess Docetaxel sensitivity of DU145-pCK19-GFP and 22Rv1-pCK19-GFP cells. Cells growing in 6-well plates at low confluence were placed in the stage inside an incubator chamber at 37° C., 50% humidity, and in an atmosphere of 5% CO2. Unattended time-lapse movies of randomly chosen GFP+ and GFP− DU145 and 22Rv1 cells were performed with a Nikon Eclipse Ti inverted microscope. NIS Elements AR (Nikon) software was used to collect and process data. Imaging was performed using a 10× objective, and images were captured using 200-ms exposure times for GFP and 20-ms exposure times for bright field every 30 min.

DU145-pCK19-GFP cells = experiment: Flow cytometry of viable CK19/GFP populations after Docetaxel; assay type: cell-based, human; conditions: 10 nM Docetaxel for 72 h
Method: (§3) Flow cytometry analysis of subpopulations of prostate cancer cells were carried out following standard procedures. Intracellular CK19 and CK18 expression analysis was performed in single-cell suspensions fixed with 70% ethanol, whereas the expression of cell surface HLA class I was determined in fresh cell samples (without fixation). Primary antibodies against CK19 (Abcam), CK18 (Abcam), HLA class I (Abcam), HLA class I conjugated to phycoerythrin (Abcam), and GFP (Abcam) were used. […] Samples were acquired with a FACscan Flow Cytometer (BD Biosciences) and analyzed with CellQuest Pro software (BD Biosciences). A minimum of 10,000 cells were measured per sample.

[4] = test system: DU145-pCK19-GFP and 22Rv1-pCK19-GFP cells; experiment: Immunoblots of Docetaxel-resistance markers in unsorted cells; assay type: cell-based, human; conditions: Docetaxel 72 hours (10 nM DU145, 50 nM 22Rv1)
Method: as §1

[5] = test system: DU145 and 22Rv1 xenografts; experiment: Percentage of CK-negative cells in tumor xenografts; assay type: in vivo, NOD/SCID mice; conditions: treated for 4 weeks
Method: Immunofluorescence analyses were conducted on prostate cancer cell lines and formalin fixed paraffin-embedded tissue sections from normal human prostate, human cancers, and tumor xenografts. Primary antibodies included a combination of cytokeratin 19 and 18 (Abcam), green fluorescence protein (Abcam), cytokeratin 5 (Covance), cytokeratin 14 (Biogenex), p63 (Santa Cruz), pan-HLA class I (Abcam), Ki67 (Abcam) and the following transcription factors: activated Notch2 (Abcam), Gli1 (Santa Cruz), Gli2 (Abcam) and androgen receptor (DAKO). […] Prostate cancer cells (10,000) were plated in 35 mm culture dishes and 24 hours later stained by standard immunofluorescence procedures. Tissue sections (5 μm) were deparaffinized and submitted to standard peroxidase based immunohistochemistry and immunofluorescence procedures. Quantification of the expression of cytokeratins, HLA class I antigens, transcription factors, and androgen receptor was performed by evaluating tumor cells. Percentage of positive and negative cells was determined by counting the number of tumor cells in 10 contiguous high power fields in three different areas of the tumor, and referred to the total number of counted cancer cells.

22Rv1-pCK19-GFP cells = experiment: Flow cytometry of viable CK19/GFP populations after Docetaxel; assay type: cell-based, human; conditions: 50 nM Docetaxel
Method: as §3

CC1=C2C[C@H]3[C@@H](CC=C4C[C@@H](O)CC[C@@]43C)[C@@H]2CC[C@]12O[C@@H]1C[C@H](C)CN[C@H]1[C@H]2C [Cyclopamine]
Bcl-2 expression level (Bcl-2): significantly reduced; also recorded: reduces | targeting of respective pathway (mRNA of pathway target genes) [1]: targeting their respective pathways

C[C@H](NC(=O)Cc1cc(F)cc(F)c1)C(=O)NC1C(=O)N(C)c2ccccc2-c2ccccc21 (stereo partly drawn) [DBZ, (2S)-2-[2-(3,5-difluorophenyl)-acetylamino]-N-(5-methyl-6-oxo-6,7-dihydro-5H-dibenzo[b,-d]azepin-7-yl)-propionamide]
targeting of respective pathway (mRNA of pathway target genes) [1]: targeting their respective pathways | p-AKT (Ser473) level (p-AKT (Ser473)): significantly reduced; also recorded: decreases

C[C@H](NC(=O)Cc1cc(F)cc(F)c1)C(=O)N[C@H]1N=C(c2ccccc2)c2ccccc2N(C)C1=O [Compound E]
targeting of respective pathway (mRNA of pathway target genes) [1]: targeting their respective pathways | p-AKT (Ser473) level (p-AKT (Ser473); listed as CE): significantly reduced; also recorded: specifically decreases

CS(=O)(=O)c1ccc(C(=O)Nc2ccc(Cl)c(-c3ccccn3)c2)c(Cl)c1 [GDC-0449, Vismodegib]
Bcl-2 expression level (Bcl-2): significantly reduced; also recorded: reduces | targeting of respective pathway (mRNA of pathway target genes) [1]: targeting their respective pathways

Cl.O=c1cc(N2CCOCC2)oc2c(-c3ccccc3)cccc12 [LY294002, 2-(4-Morpholinyl)-8-phenyl-1(4H)-benzopyran-4-one hydrochloride]
colony formation of CK19/GFP-negative cells with PI3K/AKT and Bcl-2 inhibition [2]: not individual | apoptosis (PARP and Caspase-3 cleavage) with PI3K/AKT and Bcl-2 inhibition (CK19/GFP-negative cells): not individual

CC(=O)O[C@@]12CO[C@@H]1C[C@H](O)[C@@]1(C)C(=O)[C@H](O)C3=C(C)[C@@H](OC(=O)[C@H](O)[C@@H](NC(=O)OC(C)(C)C)c4ccccc4)C[C@@](O)([C@@H](OC(=O)c4ccccc4)[C@H]21)C3(C)C [Docetaxel]
colony formation after exposure to Docetaxel ([2]; Docetaxel 10 nM (DU145) and 50 nM (22Rv1)): only CK19/GFP-negative cells formed colonies | behavior of CK19/GFP-negative cells under therapy [3]: able to divide and exit mitosis | behavior of CK19/GFP-positive cells under therapy [3]: died after mitotic arrest | viable CK19/GFP-negative population (DU145-pCK19-GFP cells; 4.4±4.3% before treatment): 73.1±10.2% | viable CK19/GFP-positive population (DU145-pCK19-GFP cells; 87.5±10.4% before treatment): 28.3±10.6% | differentiation markers and developmental signaling pathways [4]: expected reduction in differentiation markers and increase in developmental signaling pathways | CK-negative cells in xenografts [5]: enriched for CK-negative cells | viable 22Rv1-pCK19-GFP-negative cells (22Rv1-pCK19-GFP cells; 8.5±3.5% before treatment): 78.6±4.1% | viable CK19/GFP-positive cells (22Rv1-pCK19-GFP cells; 85.0±2.0% before treatment): 19.3±3.4%

O=C1c2c(O)ccc(O)c2C(=O)c2c(NCCNCCO)ccc(NCCNCCO)c21 [Mitoxantrone]
colony formation of CK19/GFP-negative cells [2]: formed colonies | colony formation of CK19/GFP-positive cells [2]: failed to do so

N.N.[Cl][Pt][Cl] [Cisplatin]
colony formation of CK19/GFP-negative cells [2]: formed colonies | colony formation of CK19/GFP-positive cells [2]: failed to do so

CN(C)CC[C@H](CSc1ccccc1)Nc1ccc(S(=O)(=O)NC(=O)c2ccc(N3CCN(Cc4ccccc4-c4ccc(Cl)cc4)CC3)cc2)cc1[N+](=O)[O-] [ABT-737]
colony formation of CK19/GFP-negative cells with PI3K/AKT and Bcl-2 inhibition [2]: not individual | apoptosis (PARP and Caspase-3 cleavage) with PI3K/AKT and Bcl-2 inhibition (CK19/GFP-negative cells): not individual

CCC1=C[C@@H]2CN(C1)Cc1c([nH]c3ccccc13)[C@@](C(=O)OC)(c1cc3c(cc1OC)N(C)[C@H]1[C@@](O)(C(=O)OC)[C@H](OC(C)=O)[C@]4(CC)C=CCN5CC[C@]31[C@@H]54)C2 [Vinorelbine]
colony formation of CK19/GFP-negative cells [2]: formed colonies | colony formation of CK19/GFP-positive cells [2]: failed to do so

— US20150272970A1, “TARGETING CHEMOTHERAPY AGENT RESISTANCE IN CANCER” (priority 2012, published 2015)
